The results in this text go back to PubChem BioAssay AID488890 (Southern Research Specialized Biocontainment Screening …, 2010).

SMILES strings stand for the structures. Inconclusive results are not listed. Active and inactive are the calls of the source. How the calls were made is not given here. Bounds are passed on as bounds.

One may read the IC50 as the concentration that gives 50% inhibition.

This experiment has as its system Mycobacterium tuberculosis non-replicating, growth inhibition. The experiment in a line: growth inhibition of non-replicating M. tuberculosis (AID 488890).

On to `O=C(COc1ccc2ccccc2c1Br)N1CCCC1`, for which the IC50 is 0.56 µM.

As to `Cc1ccc(NC(=O)c2ccc([N+](=O)[O-])o2)cc1S(=O)(=O)N1CCOCC1`, the IC50 was 13.9 µM (inactive).

For the molecule `Cc1ccnc(-n2sc3ccccc3c2=O)n1`, the IC50 is 25.6 µM (inactive).

Turning to `CC(=O)CCC1CC(c2ccc(Cl)cc2)=NO1` (stereo not drawn), the IC50 is 2.39 µM.

`CCOC(=O)c1c(NC(=O)C2COc3ccccc3O2)sc2c1CC(C)(C)NC2(C)C` (stereo not drawn): the IC50 is 18.3 µM (inactive).

Regarding `O=C(CCSc1nnc(-c2ccccc2)o1)N1CCOCC1`, the IC50 was 3.95 µM.

For `Cc1cc(OCCCn2ccnc2)ccc1C(C)C`, the IC50 is 9.17 µM.

As for `COc1ccc(NC(=O)Nc2ccc(O)c3ccccc23)cc1`, the IC50 is 3.7 µM.

With `CC12CN3CC(C)(CN(C1)C3c1ccc([N+](=O)[O-])o1)C2` (stereo not drawn), the IC50 was 4.23 µM.

Turning to `CCn1nnc(NC(=O)COc2ccc(C3CCCCC3)cc2)n1`, the half-inhibitory concentration (IC50) was 1.5 µM.

As for `CC(C)C(=O)Nc1cccc(-c2nc3ccccc3c(=O)o2)c1`, the IC50 was 3.79 µM.

As for `N/C(=N\OC(=O)c1cccs1)c1ccccc1`, the IC50 is 24 µM (inactive).

As for `CCc1ccc(N2C(=O)NC(=O)/C(=C\C=C\c3ccco3)C2=O)cc1`, the IC50 is 10.9 µM (inactive).

Take `O=C(CC(=O)c1cc(Cl)ccc1O)c1ccccc1`: the half-maximal inhibitory concentration (IC50) is 2.65 µM.

With `COc1ccc(C(=O)Oc2cccc3cccnc23)cc1S(=O)(=O)N1CCOCC1`, the IC50 is 1.19 µM.

Turning to `COc1cccc2[nH]c3c(Cl)ncnc3c12`, the IC50 is 17.4 µM (inactive).

Take `c1ccc(-c2nnc(SCc3nnc(-c4cccs4)o3)o2)cc1`: the IC50 is 5.95 µM.

Regarding `CCCCCCCNC(=O)C1(CC2CC(c3cccc(Br)c3)=NO2)CCNCC1` (stereo not drawn), the IC50 was 13.7 µM (inactive).

As for `O=C(N/N=C/C(Br)=C/c1ccccc1)c1ccncc1`, the half-maximal inhibitory concentration (IC50) was 3.89 µM.

For `Cc1ccc(NC(=O)COc2ccc(-n3ccnc3)cc2)cc1Cl`, the IC50 was 6.44 µM.

Take `COc1ccc(Nc2ccccc2N)cc1`: the 50% inhibitory concentration (IC50) was 2.72 µM.

On to `O=C1Nc2cc(C(=O)NCCCN3CCOCC3)ccc2S/C1=C/c1cccc(Cl)c1`, for which the IC50 was 20.8 µM (inactive).

Turning to `COc1cc(NCCC(=O)c2cccs2)c(OC)cc1Cl`, the IC50 was 4.04 µM.

Regarding `O=[N+]([O-])c1cc(Cl)cc(/C=N/Nc2nc3ccccc3s2)c1O`, the IC50 was 1.8 µM.

For `CCc1cccc(OCCCn2ccnc2)c1`, the IC50 is 18.7 µM (inactive).

In the case of `CCOC(=O)Cc1nc2cc(Cl)ccc2o1`, the IC50 is 32.3 µM (inactive).

As for `O=C(Nc1ncc([N+](=O)[O-])s1)c1cccs1`, the IC50 was 11.2 µM (inactive).

Consider `CCC(=O)c1ccc(OCC(=O)OCC(=O)c2cc(C)n(C3CC3)c2C)cc1`, for which the half-maximal inhibitory concentration (IC50) was 7.97 µM.

For the molecule `COc1ccc(O)c(C(=O)CC(=O)c2ccc(F)cc2)c1`, the IC50 was 17.2 µM (inactive).

`Brc1ccc(-c2ccc(CNCc3ccccn3)o2)cc1`: the IC50 is 1.12 µM.

For the molecule `O=C(Nc1ncccn1)c1ccc([N+](=O)[O-])o1`, the IC50 was 8.49 µM.

For the molecule `COc1ccc(-c2nnc(NC(=O)C3=COCCO3)o2)cc1`, the IC50 is 27.1 µM (inactive).

Turning to `O=C(CNc1cccc2ccccc12)N/N=C/c1ccc([N+](=O)[O-])o1`, the IC50 is 12.1 µM (inactive).

Consider `O=C(N/N=C\c1ccc(Cl)s1)C1COc2ccccc2O1` (stereo not drawn), for which the concentration for half-maximal inhibition (IC50) is 0.97 µM.

For the molecule `COc1cc(C2C3=C(CC(C)(C)CC3=O)OC(N)=C2[N+](=O)[O-])ccc1O` (stereo not drawn), the IC50 was 50 µM (inactive).

For the molecule `O=C(N/N=C/c1ccc([N+](=O)[O-])s1)c1cccc(Br)c1`, the IC50 is 4.95 µM.

Turning to `Oc1cc(NCc2cccnc2)ccc1-c1nc2ccccc2o1`, the IC50 was 47.1 µM (inactive).

With `Cc1cccc2cc(C#N)c(NCCCn3ccnc3)nc12`, the IC50 is 23.3 µM (inactive).

Turning to `CCOC(=O)c1cn(Cc2cccc(Cl)c2)nn1`, the IC50 was 8.03 µM.

Take `COc1cc(OC)nc(-n2ncc(Br)c(Br)c2=O)n1`: the IC50 is 6.07 µM.

`Cc1nonc1C(=O)N/N=C/c1ccc([N+](=O)[O-])o1`: the IC50 was 10.1 µM (inactive).

Take `COc1ccc(-c2nnn(CC(=O)OC3CCCCC3)n2)cc1OC`: the half-inhibitory concentration (IC50) is 7.74 µM.

`COc1ccc(OCC(=O)NNC(=O)c2ccccn2)cc1`: the IC50 is 11.3 µM (inactive).

For the molecule `Cc1cc(/C=N\NC(=O)c2cccs2)c(C)n1-c1ccc2ncccc2c1`, the IC50 was > 25 µM (inactive).

Turning to `CN(C)CCCN(C(=O)CCc1ccccc1)c1nc2ccc(Br)cc2s1`, the IC50 is 14.2 µM (inactive).

Turning to `CC(C)C[C@H]1CN=C(Nc2ccccc2)N1CCCC1CCCCC1`, the IC50 is 8.79 µM.

In the case of `S=c1[nH]c2ccccc2o1`, the IC50 is 27.5 µM (inactive).

Regarding `O=C(Nc1ccc(S(=O)(=O)N2CCOCC2)cc1)c1ccc([N+](=O)[O-])o1`, the half-inhibitory concentration (IC50) was 5.29 µM.

Take `CN(C)CCCNc1cc(C(C)(C)C)nc2c(-c3ccccc3)cnn12`: the IC50 was 18.6 µM (inactive).

Consider `O=C(Oc1ccccc1)c1cc2ccccc2o1`, for which the IC50 was 6.73 µM.

In the case of `CCN1CSC(=S)N(Cc2ccc(OC)cc2)C1`, the IC50 was 18.5 µM (inactive).

In the case of `CC(=O)n1cc(/C=C2/N=C(c3ccccc3)OC2=O)c2ccccc21`, the half-inhibitory concentration (IC50) is 2.59 µM.

Turning to `Clc1ccc(Cc2nnc(-c3cccs3)o2)cc1`, the IC50 is under 0.1 µM.

For `O=C(Oc1cccc2cccnc12)c1cccc(-n2cnnn2)c1`, the IC50 was 22.9 µM (inactive).

Turning to `Cc1cc2nc(CSc3ccc(Cl)cc3)cc(=O)n2[nH]1`, the IC50 was 14.8 µM (inactive).

As for `O=C(COc1ccc(Cl)cc1)Nc1ccc(Cl)cn1`, the half-maximal inhibitory concentration (IC50) is 6.56 µM.

Regarding `CCOC(=O)c1c(-c2ccccc2)csc1NC(=O)CCN1CCOCC1`, the IC50 was 24.4 µM (inactive).

With `Cc1onc(-c2ccccc2)c1C(=O)N/N=C/c1ccc([N+](=O)[O-])s1`, the IC50 was 8.09 µM.

`Cc1ccccc1-n1sc2cc(F)ccc2c1=O`: the IC50 was 9.85 µM.

`O=[N+]([O-])c1ccc(-c2nc3ccc([N+](=O)[O-])cc3[nH]2)cc1`: the IC50 was 16 µM (inactive).

Turning to `C/C(=N\NC(=O)c1cccs1)c1ccc2c(c1)OCO2`, the IC50 is 8.78 µM.

In the case of `CCOC(=O)c1ccc(N=C2SC(C(=O)Nc3ccc(C(=O)O)cc3)CC(=O)N2Cc2cccs2)cc1` (stereo not drawn), the IC50 was 35.1 µM (inactive).

With `CCS(=O)(=O)c1ncc(Cl)c(C(=O)Nc2ccc(C)cc2)n1`, the concentration for half-maximal inhibition (IC50) was 4.64 µM.

Consider `CCCCOc1ccc(CSCCN)cc1Cl`, for which the IC50 was 27.8 µM (inactive).

Turning to `CCC(C)(C)NC(=O)c1ccc(Br)o1`, the IC50 was 18.6 µM (inactive).

In the case of `CCCCOC(=O)C1CCCC(C(=O)OCCCC)N1` (stereo not drawn), the IC50 is 4.91 µM.

On to `CC(C)c1ccc(OCC(=O)NNC(=O)c2cnccn2)cc1`, for which the IC50 was 11.9 µM (inactive).

With `CC(C)=CC1C(C(=O)Nc2ccc(Br)cn2)C1(C)C` (stereo not drawn), the concentration for half-maximal inhibition (IC50) was 3.57 µM.

In the case of `CC(C)(C)c1ccc2c(c1)OC(C(=O)N/N=C\c1ccccn1)CO2` (stereo not drawn), the half-maximal inhibitory concentration (IC50) was 4.8 µM.

On to `O=[N+]([O-])c1ncccc1Oc1nc(-c2cccnc2)nc2ccccc12`, for which the IC50 was 0.73 µM.

Consider `CCC1CCc2sc(C(=O)NCC3CCCO3)cc2C1` (stereo not drawn), for which the half-inhibitory concentration (IC50) was 1.44 µM.

Turning to `O=C(CCN1C(=O)S/C(=C\c2ccc(F)cc2)C1=O)Nc1ccc(C(=O)O)c(O)c1`, the IC50 is 0.17 µM.

In the case of `CCc1ccc(N2NC(=O)/C(=C/C=C/c3ccco3)C2=O)cc1`, the IC50 was 3.65 µM.

Turning to `COC(=O)c1ccc(Sc2nnnn2-c2ccccc2)c([N+](=O)[O-])c1`, the half-inhibitory concentration (IC50) was 7.81 µM.

As for `CC1CCN(C(=O)C2COc3ccccc3O2)CC1` (stereo not drawn), the IC50 was 0.23 µM.

With `COc1ccc(/C=C/c2nc3ccccc3c(=O)o2)cc1`, the IC50 was 2.74 µM.

In the case of `O=C(NNc1c(F)c(F)cc(F)c1F)c1cc2ccccc2oc1=O`, the IC50 was 27.5 µM (inactive).

On to `Cc1nc2ccc(NC(=O)COc3cccc(F)c3)cc2s1`, for which the IC50 was 7.87 µM.

Regarding `COc1ccc(N/N=C/c2c(C(=O)O)ccc3ccccc23)cc1`, the IC50 was under 0.1 µM.

As for `c1ccc(-c2nnc(SCc3cn4ccsc4n3)o2)cc1`, the IC50 is 11.1 µM (inactive).

In the case of `Clc1ccc(OCCCCN2CCc3ccccc3C2)cc1`, the IC50 was 9.36 µM.

Regarding `O=C(Nc1nccs1)c1ccc2ccccc2c1`, the IC50 was 13.8 µM (inactive).

Consider `O=C(COC(=O)Cc1ccc(Br)cc1)Nc1ccc(N2CCOCC2)cc1`, for which the IC50 was 39.1 µM (inactive).

Regarding `Cc1cc(N/N=C/c2ccc(F)cc2)nc(-n2nc(C)cc2C)n1`, the IC50 is 4.92 µM.

For `COC(=O)COc1ccc2c(=O)c(-c3ccccc3OC)coc2c1`, the half-inhibitory concentration (IC50) was 7.87 µM.

In the case of `O=C(Nc1nnc(C2=COCCO2)o1)c1cccc(C(F)(F)F)c1`, the IC50 is 17.7 µM (inactive).

Consider `CCC(CC)c1nnc(NC(=O)c2ccc3ccccc3n2)s1`, for which the half-inhibitory concentration (IC50) was 4.02 µM.

With `O=C(COc1ccc(Br)cc1)Nc1ccc([N+](=O)[O-])cn1`, the half-inhibitory concentration (IC50) was 6.47 µM.

As for `COc1ccc(C(=O)C=CNNC(=O)c2ccc(Cl)cc2)cc1`, the IC50 was 0.48 µM.

As for `O=C(CCN1CCOCC1)c1ccc(Cl)cc1`, the IC50 was 7.01 µM.

For the molecule `Cc1cccc(Nc2nc(-c3ccccn3)cs2)n1`, the IC50 was 0.95 µM.

Consider `Cc1cnc(NC(=O)c2ccccn2)s1`, for which the 50% inhibitory concentration (IC50) is 8.53 µM.

Consider `COC(=O)c1sc(NC(=O)c2ccc([N+](=O)[O-])o2)c(C#N)c1C`, for which the half-maximal inhibitory concentration (IC50) was 4.3 µM.

Regarding `Cc1ccc2c(CC(=O)OCC(=O)Nc3ccc(Cl)cn3)coc2c1`, the IC50 was 15 µM (inactive).

For `O=C(CNC(=O)c1ccco1)OCc1ccc(C(=O)Oc2ccccc2)cc1`, the IC50 was 8.17 µM.

As to `COC(=O)C1CC(=O)N(c2ccc(OCc3ccccc3Cl)cc2)C1` (stereo not drawn), the half-maximal inhibitory concentration (IC50) was 3.53 µM.

With `O=[N+]([O-])c1cnc(Nc2ccc(Cl)cn2)c([N+](=O)[O-])c1`, the IC50 was 1.89 µM.

On to `CCOC(=O)COc1ccc(/C=C2\NC(=S)N(CC)C2=O)cc1`, for which the concentration for half-maximal inhibition (IC50) was 7.01 µM.

Take `O=C(CCN1C(=O)/C(=C/c2ccccc2Cl)SC1=S)N1CCCC1`: the IC50 was 7.03 µM.

With `CCCCCn1nnc2c(=O)oc3ccccc3c21`, the IC50 was 1.2 µM.

With `CCOC(=O)Cc1c(C)nc2c(-c3cccc(Br)c3)c[nH]n2c1=O`, the IC50 was 4.13 µM.

For `c1ccc(-c2n[nH]c(-c3ccccn3)n2)nc1`, the 50% inhibitory concentration (IC50) was 6.04 µM.

Regarding `C=CCc1cc(Cl)ccc1OCCCn1ccnc1`, the half-maximal inhibitory concentration (IC50) is 8.18 µM.
